The source of these data is PubChem BioAssay AID1996.

Converted amounts (≈) assume the structure as drawn.

For the data set the following is noted: buffer; pH 7.4; 200.0 µM.
By kinetic solubility is commonly meant the concentration staying in solution when a stock, usually in DMSO, is diluted into the medium. Regarding `CCCNC(=S)N1CCC(NC(=O)c2ccc(OC)cc2)CC1`, the solubility (kinetic) was determined as 20.3 µg/mL (≈ 60.5 µM).

With `Cc1csc(SCC(=O)NC(C)C2CC3CCC2C3)n1` (stereo unspecified), the solubility (kinetic) was > 46.6 µg/mL.

In the case of `CN(Cc1c(F)cccc1Cl)S(=O)(=O)c1cccs1`, the solubility (kinetic) is < 0.7 µg/mL.

As to `O=S(=O)(NC1CC1)c1ccc(F)c(F)c1`, the solubility (kinetic) is > 35 µg/mL.

On to `O=C1NC(N2CCOCC2)=N/C1=C/c1ccc2c(c1)OCO2`, for which the solubility (kinetic) is > 45.2 µg/mL.

For the molecule `O=C(NC1CC1)c1sc2cc(F)ccc2c1Cl`, the kinetic solubility was 9.4 µg/mL (≈ 34.8 µM).

As to `Cc1cc(C)c(Nc2ncccc2C(=O)O)c(C)c1`, the kinetic solubility is > 38.4 µg/mL.

`CC(C)CC(NC(N)=O)C(=O)NCc1ccc(Cl)cc1` (stereo unspecified) gave a solubility (kinetic) of 35.3 µg/mL (≈ 119 µM).

As for `Cc1c(O)ccc2c(CN3CCOCC3)cc(=O)oc12`, the kinetic solubility was > 41.3 µg/mL.

For `Cc1cccc(OCC(=O)OCC(=O)N2CCN(C(=O)c3ccco3)CC2)c1C`, the kinetic solubility is > 60.1 µg/mL.

`COc1ccc(NCC(O)Cn2c(C)c(C)c3ccccc32)cc1` (stereo unspecified) registered a kinetic solubility of 10.2 µg/mL (≈ 31.4 µM).

For `Cc1ccc(Sc2ncnc3onc(C)c23)c(C)c1`, the solubility (kinetic) was determined as 1.9 µg/mL (≈ 7 µM).

For `CC(=O)OCC(=O)Nc1c(C)cccc1C`, the kinetic solubility is > 33.2 µg/mL.

On to `N/C(=N\OC(=O)Cc1ccc([N+](=O)[O-])cc1)c1ccccn1`, for which the solubility (kinetic) stood at 26.6 µg/mL (≈ 88.6 µM).

Take `COc1ccc(N2CCN(CCc3ccncc3)CC2)cc1`: the solubility (kinetic) was > 44.6 µg/mL.

In turn, `CN1C(=O)NC(c2ccccc2[N+](=O)[O-])C2=C1CC(C)(C)CC2=O` (stereo unspecified) showed a kinetic solubility of 39.4 µg/mL (≈ 120 µM).

For `Cc1cc2oc(C(=O)Nc3nonc3C)c(C)c2cc1Cl`, the solubility (kinetic) is < 0.2 µg/mL.

Consider `O=[N+]([O-])c1ccc(N2CCN(c3ccccc3)CC2)cc1`, for which the kinetic solubility is < 0.2 µg/mL.

As to `Cc1nc(=O)c(-c2ccccc2)c(C)n1-c1ccccc1`, the kinetic solubility is > 41.5 µg/mL.

As to `O=C(Nc1ccccc1F)N1CCCC1c1cccnc1` (stereo unspecified), the solubility (kinetic) came to 40.9 µg/mL (≈ 143 µM).

In the case of `Cc1ccc(OCC(=O)N2CCN(C(=O)c3cccc(F)c3)CC2)cc1`, the kinetic solubility was > 53.5 µg/mL.

With `CCn1c(C)cc(O)c(C(=O)Nc2cccc(Cl)c2)c1=O`, the solubility (kinetic) is < 0.3 µg/mL.

The molecule `COCCNc1ncnc2c1[nH]c1ccccc12` had a kinetic solubility of 36.2 µg/mL (≈ 149 µM).

Take `CN(CC(=O)Nc1ccc(F)cc1)C(=O)Cn1cnc2ccc([N+](=O)[O-])cc2c1=O`: the kinetic solubility stood at 5.6 µg/mL (≈ 13.5 µM). Compared with the last molecule, the solubility kinetic is about 6.5-fold lower.

For `COc1ccc(CNC(=O)C2CC(C)=C(C)CC2C(=O)O)cc1OC` (stereo unspecified), the solubility (kinetic) was > 52.1 µg/mL.

On to `Cc1ccc(CNC(=O)CN2C(C)CCCC2C)cc1` (stereo unspecified), for which the kinetic solubility worked out at 28.9 µg/mL (≈ 105 µM).

Regarding `CCOC(=O)c1c(-c2ccc(F)cc2)csc1/N=C/N(C)C`, the solubility (kinetic) is > 48.1 µg/mL.

Turning to `COC(=O)/C=C1/SC(=NC(=O)c2ccc(F)cc2)NC1=O`, the solubility (kinetic) was > 46.2 µg/mL.

For `Cc1cc(C)cc(NC(=O)Oc2ccccc2N2CCCCC2)c1`, the solubility (kinetic) was determined as 10.1 µg/mL (≈ 31.1 µM).

Regarding `Cc1ccc(N2C(=O)CC(N3CCSCC3)C2=O)c(C)c1` (stereo unspecified), the kinetic solubility was > 45.7 µg/mL.

Turning to `Cc1ccc(-n2c(SCC(=O)NCC3CCCO3)nc3ccccc3c2=O)cc1` (stereo unspecified), the kinetic solubility turned out to be 32.4 µg/mL (≈ 79.1 µM).

As to `Cc1ccc(NC(=O)CN(C)C(=O)/C=C/c2ccc3c(c2)OCO3)cc1`, the kinetic solubility turned out to be 6.8 µg/mL (≈ 19.3 µM). This solubility kinetic lies about 4.8-fold lower than the previous one.

Consider `CCNC(=O)COC(=O)c1cc(-c2ccccc2)nn1-c1ccccc1`, for which the solubility (kinetic) was > 52.4 µg/mL.

`CC(=O)N1CCc2ccccc2C1CC(=O)O` (stereo unspecified) had a kinetic solubility of 32.7 µg/mL (≈ 140 µM).

For `Cc1cccnc1NC(=O)c1ccc2c(c1)OCCO2`, the solubility (kinetic) was > 40.5 µg/mL.

As to `Cn1c(=O)c2c(nc(N3CCc4ccccc4C3)n2C)n(C)c1=O`, the solubility (kinetic) is 43.2 µg/mL (≈ 133 µM).

Regarding `O=C(COC(=O)C1CC1)NCc1ccc(Cl)cc1Cl`, the solubility (kinetic) stood at 41.9 µg/mL (≈ 139 µM). This solubility kinetic and that of the molecule before are within 1.5-fold of each other.

Turning to `CC(=O)Nc1ccc(NC(=O)c2cc(=O)c3cc(C)c(C)cc3o2)cc1`, the kinetic solubility is 0.6 µg/mL (≈ 1.71 µM).

In turn, `O=C(Nc1ccccn1)Nc1ccccc1Cl` registered a solubility (kinetic) of 0.3 µg/mL (≈ 1.21 µM).

Regarding `COC(=O)[C@H](CCSC)NC(=O)Nc1cc(OC)cc(OC)c1`, the solubility (kinetic) was > 51.4 µg/mL.

Consider `CCOC(=O)c1cc(-c2c(Cl)cccc2Cl)no1`, for which the solubility (kinetic) stood at 12.1 µg/mL (≈ 42.3 µM).
